Legend:
[1] = target: T1, [Pyruvate dehydrogenase (acetyl-transferring)] kinase isozyme 1, mitochondrial (Homo sapiens, UniProt Q15118); assay: Competitive binding affinity to recombinant N-terminal 6xHis-SUMO-tagged human PDK1 (29 to 436 residues) expressed in Escherichia coli BL-21 assessed as Kd of AZD7545 at 50 uM by isothermal titration calorimetric method (Rvb = 290.6 nM)
[2] = target: T1, [Pyruvate dehydrogenase (acetyl-transferring)] kinase isozyme 1, mitochondrial; assay: Competitive binding affinity to recombinant N-terminal 6xHis-SUMO-tagged human PDK1 (29 to 436 residues) expressed in Escherichia coli BL-21 assessed as Kd of ADP at 50 uM by isothermal titration calorimetric method (Rvb = 4.27 uM)

T1 sequence (Q15118 whole entry, the tested form may be a part): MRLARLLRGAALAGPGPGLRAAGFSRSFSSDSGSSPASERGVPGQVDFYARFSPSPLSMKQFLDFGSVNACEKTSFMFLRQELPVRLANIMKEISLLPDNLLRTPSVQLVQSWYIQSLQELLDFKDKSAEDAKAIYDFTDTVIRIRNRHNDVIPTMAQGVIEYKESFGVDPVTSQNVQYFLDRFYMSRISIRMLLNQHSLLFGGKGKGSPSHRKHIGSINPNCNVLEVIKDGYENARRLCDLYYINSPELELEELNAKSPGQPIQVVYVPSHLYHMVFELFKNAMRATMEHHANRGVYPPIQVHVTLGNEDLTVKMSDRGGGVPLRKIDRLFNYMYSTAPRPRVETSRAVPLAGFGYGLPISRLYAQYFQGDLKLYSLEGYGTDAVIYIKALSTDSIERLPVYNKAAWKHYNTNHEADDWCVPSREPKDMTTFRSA

Kd [1]: 0.291 µM | Kd [2]: 7.87 µM
Compound: O=C(Nc1ccc(Cl)c(C(F)(F)F)c1)C(Cl)Cl

From BindingDB's records for doi:10.1021/acs.jmedchem.5b01828 (University of Macau, 2016)
